Measurements reported in patent US9006205B2, “Antisense oligonucleotides against neutral sphingomyelinase and neutral sphingomyelinase inhibitor GW4869 for degenerative neurological disorders” (Rush University Medical Center, priority 2011, dated 2015).

Tests used:
Format in all cases: cell-based
iNOS = iNOS mRNA expression (RT-PCR, real-time PCR) in activated primary human astrocytes; conditions: oligonucleotide 40 h, then 6 h of stimulation
Procedure: (§1) Total RNA was isolated from human primary astrocytes using RNA-Easy Qiagen kit following manufactures protocol. To remove any contaminating genomic DNA, total RNA was digested with DNase. Semi-quantitative RT-PCR was carried out as described earlier using oligo (dT) 12-18 as primer and MMLV reverse transcriptase (Clontech) in a 20-μl reaction mixture. The resulting cDNA was appropriately diluted, and diluted cDNA was amplified using Titanium Taq polymerase and the following primers for human proinflammatory genes: […]
It was performed using the ABI-Prism7700 sequence detection system (Applied Biosystems, Foster City, Calif.) using TaqMan Universal Master Mix and optimized concentrations of FAM-labeled probe, forward and reverse primers (Applied Biosystems) as described earlier. […] Data were processed by the ABI Sequence Detection System 1.6 software and analyzed by ANOVA.
Cells pretreated with ASO and ScO against N-SMase and A-SMase for 40 h were stimulated with (Aβ+IL-1β) under serum-free condition. After 24 h of stimulation, the concentration of nitrite was measured in supernatants (FIG. 4A) by Griess reagent. […] After 6 h, the expression of iNOS mRNA was analyzed by both semi-quantitative RT-PCR (C) and quantitative real-time PCR (FIG. 4D). The expression of TNF-a, IL-6 and IL-Iβ mRNAs were analyzed by semi-quantitative RT-PCR (FIG. 4E). […]

[1] = system: TNF-α, IL-1β and IL-6 mRNAs; assay: TNF-α, IL-1β and IL-6 mRNA expression (RT-PCR) in activated primary human astroglia; conditions: oligonucleotide 40 h, then 6 h of stimulation
Procedure: as §1
Cells pretreated with ASO and ScO against N-SMase and A-SMase for 40 h were stimulated with (Aβ+IL-1β) under serum-free condition. After 24 h of stimulation, the concentration of nitrite was measured in supernatants (FIG. 4A) by Griess reagent. […] Cells were treated with ASO/ScO for 40 h followed by stimulation with the combination of fibrillar Aβ and IL-Iβ as above. After 6 h, the expression of iNOS mRNA was analyzed by both semi-quantitative RT-PCR (C) and quantitative real-time PCR (FIG. 4D). The expression of TNF-a, IL-6 and IL-Iβ mRNAs were analyzed by semi-quantitative RT-PCR (FIG. 4E). Results are mean±SD of three different experiments. ^ap<0.001 vs control; ^bp<0.001 vs (Aβ+IL-Iβ).

primary human astroglia = assay: NO synthesis (nitrite, Griess reagent) in primary human astroglia; conditions: astroglia pretreated 40 h with oligonucleotide; nitrite after 24 h of stimulation
Procedure, shortened: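 Primary human astroglia pretreated 40 h with antisense or scrambled oligonucleotides against N-SMase and A-SMase, then stimulated with fibrillar Aβ plus IL-1β under serum-free conditions. Nitrite was measured in supernatants by Griess reagent after 24 h of stimulation.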

N-SMase = assay: Western blot of N-SMase protein after antisense knockdown in primary human neurons; conditions: 48 h with oligonucleotide
Procedure: Because these ASOs have become a very critical part of our study, the efficacy of N-SMase and A-SMase ASOs in inhibiting the protein expression of N-SMase and A-SMase was checked by western blot. […] Next, the effect of antisense knockdown of neuronal N-SMase and/or A-SMase on activated glia-induced neuronal apoptosis by TUNEL was investigated. […] As evidenced by a decrease In MTT metabolism, activated astroglia reduced neuronal viability (FIG. 2E).
Primary human neurons were incubated with antisense (ASO) and scrambled oligonucleotides (ScO) against N-SMase (A) and A-SMase (FIG. 2B). After 48 h, neurons were analyzed for protein expression of N-SMase and A-SMase. In FIG. 2C, primary human astrocytes seeded in inserts were stimulated by the combination of Aβ and IL-1β as described above. […] After 6 h of treatment with activated astrocytes, apoptotic events in neurons were detected by TUNEL. In FIG. 2D, TUNEL-positive cells were counted manually in four different images of each of three coverslips by three individuals blinded to the experiment. In FIG. 2E, after 18 h of stimulation, cell viability was examined by the metabolism of MTT and the release of LDH. […] Cell viability was checked by MTT (FIG. 2F) and LDH (FIG. 2G). Values obtained from the control group served as 100%, and data obtained in other groups were calculated as percent of control accordingly. […]

primary human neurons = assay: LDH release from neurons in astrocyte-neuron trans-well; conditions: neurons pretreated with oligonucleotide; 18 h of stimulation
Procedure: Primary human astrocytes were grown to confluency on inserts. After 24 h of stimulation by the combination of Aβ (1 μM) and IL-Iβ (10 ng/ml), inserts were washed thrice with HBSS and then placed onto the wells containing primary human neurons. Therefore, in this trans-well model, although neurons and astrocytes face each other, they are separable and the effect of soluble factors released from activated astrocytes on neurons can be studied allowing analysis of neuronal and glial populations separately.
The activity of lactate dehydrogenase (LDH) was measured using the direct spectrophotometric assay using an assay kit from Sigma.
Primary human neurons were incubated with antisense (ASO) and scrambled oligonucleotides (ScO) against N-SMase (A) and A-SMase (FIG. 2B). After 48 h, neurons were analyzed for protein expression of N-SMase and A-SMase. In FIG. 2C, primary human astrocytes seeded in inserts were stimulated by the combination of Aβ and IL-1β as described above. […] After 6 h of treatment with activated astrocytes, apoptotic events in neurons were detected by TUNEL. In FIG. 2D, TUNEL-positive cells were counted manually in four different images of each of three coverslips by three individuals blinded to the experiment. In FIG. 2E, after 18 h of stimulation, cell viability was examined by the metabolism of MTT and the release of LDH. […] Values obtained from the control group served as 100%, and data obtained in other groups were calculated as percent of control accordingly. […]
In FIGS. 3A-3E, primary human astrocytes seeded in inserts were stimulated by the combination of Aβ and IL-Iβ as described above. […] In FIG. 3A, after 1 h, activity of N-SMase was measured in total cell extracts of neurons as described above. […] Values obtained from the control group served as 100%, and data obtained in other groups were calculated as percent of control accordingly. […] Primary human neurons were treated with 25 μM DETA-NONOate (a NO donor) and at different time points of treatment, activities of N-SMase (FIG. 3D) and A-SMase (FIG. 3E) were monitored. ^ap<0.001 vs control (0 h).

NF-κB = assay: EMSA of NF-κB DNA-binding activity in primary human astroglia; conditions: 1 μM oligonucleotide 40 h; 1 h of stimulation

Q: Which “(Aβ+IL-1β)-induced expression of iNOS mRNA” value (iNOS) does the source give for “5′- CAGCGAGCCCGTCCACCAGCC -3′ (DNA, all phosphorothioate, methylation of C not given here) [ASO against N-SMase, ID; NO.: 12]” here?
A: strongly inhibited

Q: What about the “(Aβ+IL-1β)-induced expression of TNF-α, IL-1β and IL-6 mRNAs” value [1] of the same substance?
A: abrogated

Q: And the “(Aβ+IL-1β)-induced production of NO” value (primary human astroglia)?
A: markedly abrogated

Q: And the “level of N-SMase protein” value (N-SMase)?
A: effectively inhibited

Q: What about the “LDH release from neurons” value (primary human neurons) of the same substance?
A: significant reduction

Q: And the “(Aβ+IL-1β)-induced DNA-binding activity of NF-κB” value (NF-κB)?
A: suppressed
